# Laboratory results published in US20250346593A1, “IMIDAZO(1,2-1)PYRIDINE DERIVATIVES AS RIPK2 INHIBITORS” (Interline Therapeutics, Inc., priority 2022, published 2025).
# Where two headings read alike, the source gives them in different places.
# Columns and labels:
# [1] = molecular target: GST-RIPK2 fusion protein (human RIPK2 amino acids 1-310) (Homo sapiens (Human), UniProt O43353); test: RIPK2 binding competition assay (TR-FRET, Tracer 199)
# [2] = system: NF-κB pathway (SEAP) in THP1-Dual cells; test: THP-1 Dual cell SEAP assay (L18-MDP stimulated); type: cell-based; conditions: read-out: NFkB THP1 IC50
# [3] = read-out: RIPK2 IC50, RIPK2 binding competition assay
# Sequence of GST-RIPK2 fusion protein (human RIPK2 amino acids 1-310) (O43353 1-310): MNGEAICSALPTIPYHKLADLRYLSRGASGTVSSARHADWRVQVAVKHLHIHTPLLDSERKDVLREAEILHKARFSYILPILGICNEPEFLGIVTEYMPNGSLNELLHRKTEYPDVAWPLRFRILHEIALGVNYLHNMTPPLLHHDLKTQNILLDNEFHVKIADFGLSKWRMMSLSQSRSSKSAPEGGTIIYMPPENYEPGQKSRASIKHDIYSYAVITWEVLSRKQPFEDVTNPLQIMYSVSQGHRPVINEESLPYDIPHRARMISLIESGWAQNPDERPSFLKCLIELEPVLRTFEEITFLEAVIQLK
Structure (SMILES),IC50 [1],"IC50 ([2]; Homo sapiens, THP1-Dual)","IC50 [1, 3]",IC50 [2]
"COc1cc2ncc(-c3cc(F)c(OC)c(C(C)(C)O)c3)n2cc1S(=O)(=O)C(C)(C)C [Example 337, 2-(5-(6-(tert-butylsulfonyl)-7-methoxyimidazo[1,2-a]pyridin-3-yl)-3-fluoro-2-methoxyphenyl)propan-2-ol]",1 to 2.5 nM,250 to 1000 nM,–,–
"COc1cc2ncc(-c3cc(F)c(OC)c(OCCO)c3)n2cc1S(=O)(=O)C(C)(C)C [Example 338, 2-(5-(6-(tert-butylsulfonyl)-7-methoxyimidazo[1,2-a]pyridin-3-yl)-3-fluoro-2-methoxyphenoxy)ethan-1-ol]",2.5 to 20 nM,> 1000 nM,–,–
COc1cc2ncc(-c3cc(F)c(OC)c(C4CC4)c3)n2cc1S(=O)(=O)C(C)(C)C [Example 340],1 to 2.5 nM,50 to 250 nM,–,–
"CCCS(=O)(=O)Nc1nc(-c2cnc3cc(OC)c(S(=O)(=O)C(C)(C)C)cn23)ccc1OC [compound 314, N-(6-(6-(tert-butylsulfonyl)-7-methoxyimidazo[1,2-a]pyridin-3-yl)-3-methoxypyridin-2-yl)propane-1-sulfonamide]",–,> 1000 nM,> 20 nM,–
COc1cc2ncc(-c3cc(F)nc(NCCS(C)(=N)=O)c3)n2cc1S(=O)(=O)C(C)(C)C (centres unmarked) [compound 316],–,–,2.5 to 20 nM,250 to 1000 nM
"COc1cc(NCCCO)cc(-c2cnc3cc(OC)c(S(=O)(=O)C(C)(C)C)cn23)n1 [compound 321, 3-((2-(6-(tert-butylsulfonyl)-7-methoxyimidazo[1,2-a]pyridin-3-yl)-6-methoxypyridin-4-yl)amino)propan-1-ol]",–,> 1000 nM,> 20 nM,–
"COc1cc2ncc(-c3cc(F)c(OC)c(OCCCO)c3)n2cc1S(=O)(=O)C(C)(C)C [compound 339, 3-(5-(6-(tert-butylsulfonyl)-7-methoxyimidazo[1,2-a]pyridin-3-yl)-3-fluoro-2-methoxyphenoxy) propan-1-ol]",2.5 to 20 nM,> 1000 nM,–,–
